Here are results for 24 compounds from patent US9133206B2, “Benzodiazepine and pyridodiazepine derivatives” (AbbVie Inc., priority 2010, dated 2015).

The test deals with SK-N-SH human neuroblastoma cells. The test is described as follows: Serum Deprivation/JC-1 Mitochondrial Membrane Potential (MMP) Assay. In kind it is cell-based. To be noted: for activation at 3 µM: single dose 3 μM, JC-1 ratio normalized to peak value for 10 μM dimebolin (n=2-4), read-out: JC-1 max % (@ 3 μM); for EC50: serum deprivation ~18 hours, JC-1 ratio normalized to peak value for 10 μM dimebolin, single curve fit to mean data of n=2-3; for Emax: read-out: JC-1 max %. From the text:
The method also involves a high-throughput assay using serum-deprivation conditions involving neuronal cells to screen for compounds that increase or preserve mitochondrial membrane potential. Such compounds can be found to aid in rescuing cells from energy-depletion that occurs in several neurodegenerative states. Mitochondrial-mediated apoptosis occurs in response to a wide range of apoptotic stimuli including p^53, c-myc, DNA damage, prooxidants, chemotherapeutic agents, serum starvation and death receptor activation (Lin C—H., Lu Y-Z., Cheng, F-C., Chu L-F. and Hsuch C-M. Bax-regulated mitochondrial-mediated apoptosis is responsible for the in vitro ischemia induced neuronal cell death of Sprague Dawley rat. Neuroscience Lett. 2005, 387, 22-27).
Thus, this stress inducer, serum deprivation, combined with monitoring changes in the mitochondrial membrane potential in a 96-well format allows for the establishment of an efficient high-throughput screen (HTS) in order to evaluate the ability of compounds to increase mitochondrial membrane potential in the presence of stress and preserve health of the cell. Exemplary procedures for conducting such high-throughput assay are provided below.
SK-N-SH human neuroblastoma cells obtained from American Type Culture Collection (Rockville, Md.) were maintained in the log phase of growth in Minimal Essential Media (MEM), 10% heat inactivated fetal calf serum and 100 units/mL antibiotic-antimycotic (AA). Cells were cultured and maintained in a humidified incubator at 37° C. under 5% CO2 and 95% air. Cells were trypsinized (0.25%) and subcultured every 3 days and used from 15-18 passages. All cell culture supplies were obtained from Invitrogen (Carlsbad, Calif.).
SK-N-SH cells were plated 2-3 days in advance at a concentration of 50,000 cells/well onto collagen coated black-walled 96 well plates (Becton-Dickinson, Bedford, Mass.) in a total volume of […]. On day of experimental treatment, the media containing serum was aspirated from each well and rinsed once with MEM/1% AA without serum. The cells then were incubated overnight in 100 μL of MEM/1% AA (no serum) with and without dimebolin or novel chemical entities overnight for ˜18 hours. The following day, JC-1 dye (5,5′,6,6′-tetrachloro-1,1′,3,3′-tetraethylbenzimidazolcarbocyanide) was diluted 1:10 into MEM media according to the JC-1 Mitochondrial Membrane Potential Assay Kit: (Cayman Chemical Company, Ann Arbor, Mich.) and then 10 μL of the JC-1 dye solution was added to each well. The plates were centrifuged for 5 minutes at 400×g at room temperature followed by 40 minute incubation at 37° C. The plates were washed twice with 200 μL of provided Assay Buffer followed an addition of 100 μL of Assay Buffer to each well. The plates were read with an excitation and emission of 560 nm and 595 nM for red fluorescence and with an excitation and emission of 485 nm and 535 nM for green fluorescence to determine the final JC-1 value taking the red to green fluorescence ratio. This assay is based on change in mitochondrial membrane potential (MMP) using this lipophilic cationic dye, JC-1, by monitoring the changes in the ratio of red to green fluorescence as the MMP depolarizes. This change in MMP reflects the health of the cell with healthy, viable cells have a high JC-1 ratio and high MMP whereas apoptotic, unhealthy cells have a low JC-1 ratio or low MMP.
For the ability of compounds to reverse the stress due to serum deprivation and increase the JC-1 ratio, the percent maximal intensity in JC-1 ratio was normalized to that induced by the peak value for 10 μM dimebolin and plotted against the compound concentration to calculate EC50 values and to control for plate-to-plate variability. Concentration-response data were analyzed using GraphPad Prism (San Diego, Calif.); the EC50 values were derived from a single curve fit to the mean data of n=2-3, in duplicates. […]

[1] abbreviates: Homo sapiens, serum deprivation.
The mark [2] stands for this setting: Homo sapiens, SK-N-SH, percent maximal intensity in JC-1 ratio normalized to peak value for 10 μM dimebolin, serum deprivation.

In the case of `COCCN(C)C(=O)N1Cc2ccccc2N2CCN(Cc3ccccc3)CC2C1` (centres unmarked) [Example 149, 3-benzyl-N-(2-methoxyethyl)-N-methyl-1,2,3,4,4a,5-hexahydropyrazino[1,2-a][1,4]benzodiazepine-6(7H)-carboxamide], the activation at 3 µM under setting [1] turned out to be 218%.

Consider `O=C(NCc1ccncc1)N1Cc2ccccc2N2CCN(Cc3ccccc3)CC2C1` (centres unmarked) [Example 155, 3-benzyl-N-(pyridin-4-ylmethyl)-1,2,3,4,4a,5-hexahydropyrazino[1,2-a][1,4]benzodiazepine-6(7H)-carboxamide], for which the activation at 3 µM under setting [1] came out at 75%.

For `CC(C)(C)OC(=O)N1CCN2c3ccccc3CNC(=O)C2C1` (centres unmarked) [Example 1, tert-butyl 5-oxo-1,2,4a,5,6,7-hexahydropyrazino[1,2-a][1,4]benzodiazepine-3(4H)-carboxylate], where the note is “Homo sapiens, SK-N-SH, 18 h”, the half-maximal effective concentration (EC50) was 9.59 µM. Moreover, the Emax under setting [2] worked out at 88%.

In the case of `O=C(c1ccn[nH]1)N1Cc2ccccc2N2CCN(Cc3ccccc3)CC2C1` (centres unmarked) [Example 86, (3-benzyl-1,2,3,4,4a,5-hexahydropyrazino[1,2-a][1,4]benzodiazepin-6(7H)-yl)(1H-pyrazol-5-yl)methanone], the EC50 (Homo sapiens, SK-N-SH, 18 h) stood at 3.14 µM. Besides, under setting [2], the Emax turned out to be 218%.

Regarding `CCc1ccc(CN2Cc3ccccc3N3CCN(Cc4ccccc4)CC3C2)o1` (centres unmarked) [Example 127, 3-benzyl-6-[(5-ethyl-2-furyl)methyl]-1,2,3,4,4a,5,6,7-octahydropyrazino[1,2-a][1,4]benzodiazepine], under setting [1], the activation at 3 µM is 26%.

For the compound `O=C(c1ccc(Br)cc1)N1CCC2CN(Cc3ccccc3)CCN2c2ccccc21` (centres unmarked) [Example 41, (3-benzyl-2,3,4,4a,5,6-hexahydropyrazino[1,2-a][1,5]benzodiazepin-7(1H)-yl)(4-bromophenyl)methanone], for the setting “Homo sapiens, SK-N-SH, 18 h”, the EC50 was determined as 4.67 µM. For the same compound, under setting [2], the Emax worked out at 186%.

For `Cc1cnc(C(=O)N2Cc3ccccc3N3CCN(Cc4ccccc4)CC3C2)cn1` (centres unmarked) [Example 102, (3-benzyl-1,2,3,4,4a,5-hexahydropyrazino[1,2-a][1,4]benzodiazepin-6(7H)-yl)(5-methylpyrazin-2-yl)methanone], under setting [1], the activation at 3 µM is 110%.

Take `CCOc1ccc(CN2Cc3ccccc3N3CCN(Cc4ccccc4)CC3C2)cc1` (centres unmarked) [Example 121, 3-benzyl-6-(4-ethoxybenzyl)-1,2,3,4,4a,5,6,7-octahydropyrazino[1,2-a][1,4]benzodiazepine]: the EC50 (Homo sapiens, SK-N-SH, 18 h) was found to be 4.21 µM. Also, under setting [2], the Emax was 167%.

On to `O=C1C2CNCCN2c2ccccc2CN1Cc1ccc(Br)cc1` (centres unmarked) [Example 70, 6-(4-bromobenzyl)-2,3,4,4a,6,7-hexahydropyrazino[1,2-a][1,4]benzodiazepin-5(1H)-one], for which the EC50 (Homo sapiens, SK-N-SH, 18 h) was 9.61 µM. For the same compound, under setting [2], the Emax is 156%.

As for `O=C(c1cncs1)N1Cc2ccccc2N2CCN(Cc3ccccc3)CC2C1` (centres unmarked) [Example 89, (3-benzyl-1,2,3,4,4a,5-hexahydropyrazino[1,2-a][1,4]benzodiazepin-6(7H)-yl)(1,3-thiazol-5-yl)methanone], the EC50 (Homo sapiens, SK-N-SH, 18 h) turned out to be 1.83 µM. For the same compound, the Emax under setting [2] is 140%.

Turning to `Brc1ccc(CN2Cc3ccccc3N3CCN(Cc4ccccc4)CC3C2)cc1` (single isomer, unassigned; (+)) [Example 19, (+)-3-benzyl-6-(4-bromobenzyl)-1,2,3,4,4a,5,6,7-octahydropyrazino[1,2-a][1,4]benzodiazepine], the EC50 turned out to be 1.56 µM. Moreover, the JC-1 max % (percent maximal intensity in JC-1 ratio normalized to peak value for 10 μM dimebolin, serum deprivation) was 169%.

For `O=C(N1CCOCC1)N1Cc2ccccc2N2CCN(c3ncccn3)CC2C1` (centres unmarked) [Example 80, morpholin-4-yl[3-(pyrimidin-2-yl)-1,2,3,4,4a,5-hexahydropyrazino[1,2-a][1,4]benzodiazepin-6(7H)-yl]methanone], the EC50 (Homo sapiens, SK-N-SH, 18 h) worked out at 11.9 µM. For the same compound, under setting [2], the Emax came out at 97%.

For the compound `O=C(c1ccccc1)N1Cc2ccccc2N2CCN(Cc3ccccc3)CC2C1` (centres unmarked) [Example 5, (3-benzyl-1,2,3,4,4a,5-hexahydropyrazino[1,2-a][1,4]benzodiazepin-6(7H)-yl)(phenyl)methanone], the EC50 (Homo sapiens, SK-N-SH, 18 h) was 6.7 µM. Besides, the Emax under setting [2] turned out to be 57%.

Regarding `O=C([C@@H]1C[C@H]1c1ccccc1)N1Cc2ccccc2N2CCN(Cc3ccccc3)CC2C1` (relative stereo) [Example 15, (3-benzyl-1,2,3,4,4a,5-hexahydropyrazino[1,2-a][1,4]benzodiazepin-6(7H)-yl)[trans-2-phenylcyclopropyl]methanone], the EC50 (Homo sapiens, SK-N-SH, 18 h) came to 2.19 µM. Moreover, the Emax under setting [2] turned out to be 225%.

`Fc1ccc(CN2CCN3c4ncccc4N(CC4CNC4)CCC3C2)cc1` (centres unmarked) [Example 69, 5-(azetidin-3-ylmethyl)-9-(4-fluorobenzyl)-5,6,7,7a,8,9,10,11-octahydropyrazino[1,2-d]pyrido[3,2-b][1,4]diazepine]: the EC50 (Homo sapiens, SK-N-SH, 18 h) was found to be 10.3 µM. The Emax under setting [2] is 154%.

For the compound `c1ccc(CN2CCN3c4ccccc4CN(Cc4ccc5ccccc5c4)CC3C2)cc1` (centres unmarked) [Example 124, 3-benzyl-6-(2-naphthylmethyl)-1,2,3,4,4a,5,6,7-octahydropyrazino[1,2-a][1,4]benzodiazepine], the EC50 (Homo sapiens, SK-N-SH, 18 h) was 3.49 µM. Under setting [2], the Emax is 193%.

As to `O=C(N1Cc2ccccc2N2CCN(Cc3ccccc3)CC2C1)C1(c2ccccc2)CC1` (centres unmarked) [Example 13, (3-benzyl-1,2,3,4,4a,5-hexahydropyrazino[1,2-a][1,4]benzodiazepin-6(7H)-yl)(1-phenylcyclopropyl)methanone], the EC50 (Homo sapiens, SK-N-SH, 18 h) was 4.18 µM. Besides, the Emax under setting [2] was determined as 175%.

`Fc1ccc(CN2CCN3c4ccccc4CN(Cc4ccc(Br)cc4)C[C@@H]3C2)cc1` (single isomer, unassigned) [Example 62]: where the note is “Homo sapiens, SK-N-SH, 18 h”, the EC50 was 3.65 µM. Further, under setting [2], the Emax worked out at 161%.

Regarding `Clc1ccc(CN2Cc3ccccc3N3CCN(Cc4ccccc4)CC3C2)cn1` (centres unmarked) [Example 34, 3-benzyl-6-[(6-chloropyridin-3-yl)methyl]-1,2,3,4,4a,5,6,7-octahydropyrazino[1,2-a][1,4]benzodiazepine], the EC50 (Homo sapiens, SK-N-SH, 18 h) came out at 2.94 µM. In addition, the Emax under setting [2] was found to be 213%.

Take `O=C(c1ccccc1)N1CCN2c3ccccc3CN(C(=O)N3CCOCC3)CC2C1` (centres unmarked) [Example 79, (3-benzoyl-1,2,3,4,4a,5-hexahydropyrazino[1,2-a][1,4]benzodiazepin-6(7H)-yl)(morpholin-4-yl)methanone]: the EC50 (Homo sapiens, SK-N-SH, 18 h) was found to be 9.25 µM. Further, the Emax under setting [2] is 86%.

Regarding `c1ccc(CN2CCN3c4ccccc4NCCC3C2)cc1` (centres unmarked) [Example 26, 3-benzyl-1,2,3,4,4a,5,6,7-octahydropyrazino[1,2-a][1,5]benzodiazepine], the EC50 (Homo sapiens, SK-N-SH, 18 h) was determined as 3.47 µM. Moreover, the Emax under setting [2] is 210%.

With `Fc1ccc(CN2CCN3c4ncccc4N(CC4CCC4)CCC3C2)cc1` (centres unmarked) [Example 65, 5-(cyclobutylmethyl)-9-(4-fluorobenzyl)-5,6,7,7a,8,9,10,11-octahydropyrazino[1,2-d]pyrido[3,2-b][1,4]diazepine], the EC50 (Homo sapiens, SK-N-SH, 18 h) worked out at 4.59 µM. Further, under setting [2], the Emax was found to be 133%.

Turning to `O=C(c1cccnc1)N1CCN2c3ncccc3N(CC3CC3)CCC2C1` (centres unmarked) [Example 74, [5-(cyclopropylmethyl)-6,7,7a,8,10,11-hexahydropyrazino[1,2-d]pyrido[3,2-b][1,4]diazepin-9(5H)-yl](pyridin-3-yl)methanone], for the setting “Homo sapiens, SK-N-SH, 18 h”, the EC50 was determined as 7.82 µM. Moreover, the Emax under setting [2] turned out to be 109%.

Regarding `CCCC(=O)N1Cc2ccccc2N2CCN(Cc3ccccc3)CC2C1` (centres unmarked) [Example 108, 1-(3-benzyl-1,2,3,4,4a,5-hexahydropyrazino[1,2-a][1,4]benzodiazepin-6(7H)-yl)butan-1-one], the EC50 (Homo sapiens, SK-N-SH, 18 h) amounted to 3.12 µM. In addition, the Emax under setting [2] was determined as 162%.

As a reminder, the EC50 is the midpoint of the concentration-response curve.
